Tested on: male ICR-mice
Experiment: Potentiation of sodium pentobarbital sleeping time test
Format: in vivo
Details: intraperitoneal, 1 mg/kg, 38 mg/kg sodium pentobarbital 30 min later
Procedure: Effects of N^6-substituted adenosine derivatives and/or N^6-substituted adenine derivatives on sodium pentobarbital-induced sleeping time in mice.
Name of Experiment: Potentiation of sodium pentobarbital sleeping time test.
Method of Experiment: Groups of 8-10 male ICR-mice with an average weight of 18-22 g were used. They were dosed orally or i.p. with the test compound or the vehicle. Thirty min after i.p. injection or 60 min after oral dosing 38 mg/kg sodium pentobarbital were injected intravenously. The latency and duration of sleep (loss of righting reflex) were recorded. The percentage of prolongation of sleeping time was calculated as: [(sleeping time of experimental group)−(sleeping time of control group)]/(sleeping time of control group)×100%.

Compound | Sleep prolonging rate (%)
Cc1cccc(CNc2ncnc3c2ncn3[C@@H]2O[C@H](CO)[C@@H](O)[C@H]2O)c1 [Example 5, N^6-(m-methylbenzyl)-adenosine] | 84%
Nc1ccc(CNc2ncnc3c2ncn3[C@@H]2O[C@H](CO)[C@@H](O)[C@H]2O)cc1 [Example 6, N^6-(p-aminobenzyl)-adenosine] | 165%
Cc1ccc(CNc2ncnc3c2ncn3[C@@H]2O[C@H](CO)[C@@H](O)[C@H]2O)cc1 [Example 4, N^6-(p-methylbenzyl)-adenosine] | 51%
COc1cc(CNc2ncnc3c2ncn3[C@@H]2O[C@H](CO)C(O)C2O)cc(OC)c1OC (some centres unmarked) [Example 37, N^6-(3,4,5-trimethxoybenzyl)-adenosine] | 112%

Same assay, conditions: intraperitoneal, 5 mg/kg, 38 mg/kg sodium pentobarbital 30 min later

Compound | Sleep prolonging rate (%)
O=C(O)[C@H](Cc1c[nH]c2ccccc12)Nc1ncnc2c1ncn2[C@@H]1O[C@H](CO)C(O)C1O (some centres unmarked) [Example 112, N-(6-adenosine)-(D)-tryptophan] | 89%
O=C(O)[C@H](Cc1ccc(O)cc1)Nc1ncnc2c1ncn2[C@@H]1O[C@H](CO)C(O)C1O (some centres unmarked) [Example 107, N-(6-adenosine)-(L)-tyrosine] | 66%
O=C(O)[C@H](Cc1ccccc1)Nc1ncnc2c1ncn2[C@@H]1O[C@H](CO)C(O)C1O (some centres unmarked) [Example 102, N-(6-adenosine)-(L)-phenylalanine] | 44%

Same assay, conditions: oral, 2.5 mg/kg, 38 mg/kg sodium pentobarbital 60 min later

Compound | Sleep prolonging rate (%)
CCC(Nc1ncnc2c1ncn2[C@@H]1O[C@H](CO)[C@@H](O)[C@H]1O)c1ccccc1 (mixture of isomers) [Example 72, N^6-[(±)-1-(phenyl)-propyl]-adenosine] | 135%
CC(Nc1ncnc2c1ncn2[C@@H]1O[C@H](CO)[C@@H](O)[C@H]1O)c1ccc(N)cc1 (mixture of isomers) [Example 48, N^6-[(±)-1-(4-aminophenyl)-ethyl]-adenosine] | 132%
CCC(Nc1ncnc2c1ncn2[C@@H]1O[C@H](CO)[C@@H](O)[C@H]1O)c1ccc(OC)cc1 (mixture of isomers) [Example 74, N^6-[(±)-1-(4-methoxyphenyl)-propyl]-adenosine] | 86%
CC[C@H](Nc1ncnc2c1ncn2[C@@H]1O[C@H](CO)[C@@H](O)[C@H]1O)c1ccccc1 [Example 78, N^6-[(S)-1-(phenyl)-propyl]-adenosine] | 49%
CC[C@@H](Nc1ncnc2c1ncn2[C@@H]1O[C@H](CO)[C@@H](O)[C@H]1O)c1ccccc1 [Example 75, N^6-[(R)-1-(phenyl)-propyl]-adenosine] | 183%

Same assay, conditions: oral, 5 mg/kg, 38 mg/kg sodium pentobarbital 60 min later

Compound | Sleep prolonging rate (%)
CC[C@H](Nc1ncnc2c1ncn2[C@@H]1O[C@H](COC(C)=O)C(O)C1O)c1ccccc1 (stereo partly drawn) [Example 80, N^6-[(S)-1-(phenyl)-propyl]-adenosine-5′-acetate] | 24%
COc1cccc([C@H](C)Nc2ncnc3c2ncn3[C@@H]2O[C@H](CO)[C@@H](O)[C@H]2O)c1 [Example 66, N^6-[(S)-1-(3-methoxyphenyl)-ethyl]-adenosine] | 39%
OC[C@@H](Nc1ncnc2c1ncn2[C@@H]1O[C@H](CO)[C@@H](O)[C@H]1O)c1ccccc1 [Example 64, N^6-[(L)-2-(hydroxy)-1-(phenyl)-ethyl]-adenosine] | 67%
OC[C@H]1O[C@@H](n2cnc3c(NC(c4ccccc4)c4ccccc4)ncnc32)[C@H](O)[C@@H]1O [Example 95, N^6-(diphenylmethyl)-adenosine] | 16%
OCC(CO)Nc1ncnc2c1ncn2[C@@H]1O[C@H](CO)C(O)C1O (some centres unmarked) [Example 129, N^6-[2-(1,3-dihydroxy)-propyl]-adenosine] | 184%
C[C@@H](Nc1ncnc2c1ncn2[C@@H]1O[C@H](CO)[C@@H](O)[C@H]1O)c1ccc(F)cc1 [Example 70, N^6-[(R)-1-(4-fluorophenyl)-ethyl]-adenosine] | 136%
C[C@H](Nc1ncnc2c1ncn2[C@@H]1O[C@H](CO)[C@@H](O)[C@H]1O)c1ccc(Cl)cc1 [Example 69, N^6-[(S)-1-(4-chlorophenyl)-ethyl]-adenosine] | 33%
CCOC(=O)[C@H](Cc1ccc(O)cc1)Nc1ncnc2c1ncn2[C@@H]1O[C@H](CO)C(O)C1O (some centres unmarked) [Example 109, N-(6-adenosine)-(L)-tyrosine ethyl ester] | 36%
CCCOC[C@H]1O[C@@H](n2cnc3c(N[C@@H](CC)c4ccccc4)ncnc32)C(O)C1O (stereo partly drawn) [Example 83, N^6-[(S)-1-(phenyl)-propyl]-adenosine-5′-propyl ether] | 4%
CC[C@H](Nc1ncnc2c1ncn2[C@@H]1O[C@H](COC(C)=O)C(OC(C)=O)C1OC(C)=O)c1ccccc1 (stereo partly drawn) [Example 79, N^6-[(S)-1-(phenyl)-propyl]-adenosine-2′,3′,5′-triacetate] | 41%
Cc1ccc(CNc2ncnc3c2ncn3[C@H]2C[C@H](O)[C@@H](CO)O2)cc1 [Example 151, N^6-(p-methylbenzyl)-2′-deoxy-adenosine] | 34%
N^6-[(S)-1-(phenyl)-propyl]-adenosine-5′-decanoic ether [Example 84] | 4%
OC[C@H]1O[C@@H](n2cnc3c(NC4c5ccccc5-c5ccccc54)ncnc32)[C@H](O)[C@@H]1O [Example 98, N^6-(fluorene-9-yl)-adenosine] | 53%
OC[C@H](Nc1ncnc2c1ncn2[C@@H]1O[C@H](CO)C(O)C1O)[C@@H](O)c1ccccc1 (stereo partly drawn) [Example 41, N^6-[(1S,2S)-2-(1,3-dihydroxy-1-phenyl)-propyl]-adenosine] | 33%
C[C@H]([C@@H](O)c1ccccc1)N(C)c1ncnc2c1ncn2[C@@H]1O[C@H](CO)C(O)C1O (stereo partly drawn) [Example 135, N^6-methyl-N^6-[2-(1S,2R)-(1-hydroxy-1-phenyl)-propyl]-adenosine] | 39%
Nc1ccc(CNc2ncnc3c2ncn3[C@@H]2O[C@H](CO)[C@@H](O)[C@H]2O)cc1 [Example 6, N^6-(p-aminobenzyl)-adenosine] | 171%

Compound | Sleep prolonging rate (%)
COc1ccc(CCC(=O)OC[C@H]2O[C@@H](n3cnc4c(NC(C)c5cc(OC)c(OC)c(OC)c5)ncnc43)C(O)C2O)cc1 (mixture of isomers) [Example 54, N^6-[(±)-1-(3,4,5-trimethoxyphenyl)-ethyl]-adenosine-5′-p-methoxy-phenyl propionate] | 76%
CC[C@@H](Nc1ncnc2c1ncn2[C@@H]1O[C@H](COC(C)=O)C(OC(C)=O)C1OC(C)=O)c1ccccc1 (stereo partly drawn) [Example 76, N^6-[(R)-1-(phenyl)-propyl]-adenosine-2′,3′,5′-triacetate] | 339%
CCCOC[C@H]1O[C@@H](n2cnc3c(NC(C)c4cc(OC)c(OC)c(OC)c4)ncnc32)C(O)C1O (mixture of isomers) [Example 55, N^6-[(±)-1-(3,4,5-trimethoxyphenyl)-ethyl]-adenosine-5′-propyl ether] | 14%
CCCCCCCC(=O)OCC1OC(n2cnc3c(NCc4ccc5c(c4)OCO5)ncnc32)C2OC(C)(C)OC12 (centres unmarked) [N^6-(3,4-methylenedioxybenzyl)-2′,3′-O-isopropylidene-adenosine-5′-caprylate] | 4%
CCCC(Nc1ncnc2c1ncn2[C@@H]1O[C@H](CO)[C@@H](O)[C@H]1O)c1ccc(OC)cc1 (mixture of isomers) [Example 88, N^6-[(±)-1-(4-methoxyphenyl)-butyl]-adenosine] | 80%
CCC[C@@H](Nc1ncnc2c1ncn2[C@@H]1O[C@H](CO)C(O)C1O)c1ccccc1 (stereo partly drawn) [Example 89, N^6-[(R)-(phenyl)-butyl]-adenosine] | 163%
CCN(Cc1ccccc1)c1ncnc2c1ncn2[C@@H]1O[C@H](CO)[C@@H](O)[C@H]1O [Example 134, N^6-ethyl-N^6-benzyl-adenosine] | 7%
COc1cc(C(C)Nc2ncnc3c2ncn3[C@H]2C[C@H](O)[C@@H](CO)O2)cc(OC)c1OC (mixture of isomers) [Example 157, N^6-[(±)-1-(3,4,5-trimethoxyphenyl)-ethyl]-2′-deoxy-adenosine] | 9%
C[C@H](Nc1ncnc2c1ncn2[C@@H]1O[C@H](CO)[C@@H](O)[C@H]1O)c1ccc(F)cc1 [Example 71, N^6-[(S)-1-(4-fluorophenyl)-ethyl]-adenosine] | 24%
CCN(CCO)c1ncnc2c1ncn2[C@@H]1O[C@H](CO)[C@@H](O)[C@H]1O [Example 139, N^6-ethyl-N^6-(2-hydroxyethyl)-adenosine] | 5%
CC(=O)OC[C@H]1O[C@@H](n2cnc3c(NCc4ccc5c(c4)OCO5)ncnc32)C[C@H]1OC(C)=O [Example 154, N^6-(3,4-methylenedioxy-benzyl)-3′,5′-diacetyl-2′-deoxyadenosine] | 29%
C[C@@H](Nc1ncnc2c1ncn2[C@@H]1O[C@H](CO)[C@@H](O)[C@H]1O)c1ccc(Cl)cc1 [Example 68, N^6-[(R)-1-(4-chlorophenyl)-ethyl]-adenosine] | 103%
CC[C@@H](Nc1ncnc2c1ncn2C1CCCO1)c1ccccc1 (stereo partly drawn) [Example 146, N^6-[(R)-1-(phenyl)-propyl]-N^9-(tetrahydrofuran-2-yl)-adenine] | 2%
CC(Nc1ncnc2c1ncn2[C@@H]1O[C@H](CO)[C@@H](O)[C@H]1O)c1ccc(O)cc1 (mixture of isomers) [Example 47, N^6-[(±)-1-(4-hydroxyphenyl)-ethyl]-adenosine] | 50%
CCCC(=O)Oc1ccc(CNc2ncnc3c2ncn3[C@@H]2O[C@H](CO)[C@@H](O)[C@H]2O)cc1OC [N^6-(3-methoxy-4-butanoyloxy-benzyl)-adenosine] | 11%
CCCC(Nc1ncnc2c1ncn2[C@@H]1O[C@H](CO)[C@@H](O)[C@H]1O)c1ccccc1 (mixture of isomers) [Example 87, N^6-[(±)-1-(phenyl)-butyl]-adenosine] | 57%

Reference: patent US10174033B2, “N6-substituted adenosine derivatives and N6-substituted adenine derivatives and uses thereof” (INSTITUTE OF MATERIA MEDICA, CHINESE ACADEMY OF MEDICAL …, priority 2009, dated 2019)
